Tests used:
ΔF508-CFTR [1] = target: T1, ΔF508-CFTR (Homo sapiens, UniProt P13569, DEL508-508); assay: CFTR cell surface levels using HRP-tagged ΔF508-CFTR expressing CFBE cells, intrinsic corrector capacity; type: cell-based; design: % Activation: concentration or dose not given beside the values; details: HRP-tagged ΔF508-CFTR expressing CFBE41o- cells, compound alone (intrinsic corrector capacity), 20 hours at 33° C.; for EC50: read-out: EC50
T1 construct: host or cells: CFBE41o-, doxycycline-inducible
How it was run: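 Read-out: chemiluminescent HRP activity of ECL4-HRP-tagged ΔF508-CFTR at the cell surface, 15 min substrate in dark. Normalized as 100×(sample−DMSO)/(positive control−DMSO).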

ΔF508-CFTR [2] = target: T1, ΔF508-CFTR; assay: CFTR cell surface levels using HRP-tagged ΔF508-CFTR expressing CFBE cells, in the presence of a co-corrector; type: cell-based; details: HRP-tagged ΔF508-CFTR CFBE cells, in the presence of 3 μM co-corrector; for EC50: read-out: EC50
How it was run: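 Chemiluminescent read-out of surface HRP (15 min, dark) after PBS washes. Activity is normalized as 100×(sample−DMSO)/(3 μM co-corrector alone−DMSO).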

T1 sequence (P13569 with tags, fused parts or gaps DEL508-508): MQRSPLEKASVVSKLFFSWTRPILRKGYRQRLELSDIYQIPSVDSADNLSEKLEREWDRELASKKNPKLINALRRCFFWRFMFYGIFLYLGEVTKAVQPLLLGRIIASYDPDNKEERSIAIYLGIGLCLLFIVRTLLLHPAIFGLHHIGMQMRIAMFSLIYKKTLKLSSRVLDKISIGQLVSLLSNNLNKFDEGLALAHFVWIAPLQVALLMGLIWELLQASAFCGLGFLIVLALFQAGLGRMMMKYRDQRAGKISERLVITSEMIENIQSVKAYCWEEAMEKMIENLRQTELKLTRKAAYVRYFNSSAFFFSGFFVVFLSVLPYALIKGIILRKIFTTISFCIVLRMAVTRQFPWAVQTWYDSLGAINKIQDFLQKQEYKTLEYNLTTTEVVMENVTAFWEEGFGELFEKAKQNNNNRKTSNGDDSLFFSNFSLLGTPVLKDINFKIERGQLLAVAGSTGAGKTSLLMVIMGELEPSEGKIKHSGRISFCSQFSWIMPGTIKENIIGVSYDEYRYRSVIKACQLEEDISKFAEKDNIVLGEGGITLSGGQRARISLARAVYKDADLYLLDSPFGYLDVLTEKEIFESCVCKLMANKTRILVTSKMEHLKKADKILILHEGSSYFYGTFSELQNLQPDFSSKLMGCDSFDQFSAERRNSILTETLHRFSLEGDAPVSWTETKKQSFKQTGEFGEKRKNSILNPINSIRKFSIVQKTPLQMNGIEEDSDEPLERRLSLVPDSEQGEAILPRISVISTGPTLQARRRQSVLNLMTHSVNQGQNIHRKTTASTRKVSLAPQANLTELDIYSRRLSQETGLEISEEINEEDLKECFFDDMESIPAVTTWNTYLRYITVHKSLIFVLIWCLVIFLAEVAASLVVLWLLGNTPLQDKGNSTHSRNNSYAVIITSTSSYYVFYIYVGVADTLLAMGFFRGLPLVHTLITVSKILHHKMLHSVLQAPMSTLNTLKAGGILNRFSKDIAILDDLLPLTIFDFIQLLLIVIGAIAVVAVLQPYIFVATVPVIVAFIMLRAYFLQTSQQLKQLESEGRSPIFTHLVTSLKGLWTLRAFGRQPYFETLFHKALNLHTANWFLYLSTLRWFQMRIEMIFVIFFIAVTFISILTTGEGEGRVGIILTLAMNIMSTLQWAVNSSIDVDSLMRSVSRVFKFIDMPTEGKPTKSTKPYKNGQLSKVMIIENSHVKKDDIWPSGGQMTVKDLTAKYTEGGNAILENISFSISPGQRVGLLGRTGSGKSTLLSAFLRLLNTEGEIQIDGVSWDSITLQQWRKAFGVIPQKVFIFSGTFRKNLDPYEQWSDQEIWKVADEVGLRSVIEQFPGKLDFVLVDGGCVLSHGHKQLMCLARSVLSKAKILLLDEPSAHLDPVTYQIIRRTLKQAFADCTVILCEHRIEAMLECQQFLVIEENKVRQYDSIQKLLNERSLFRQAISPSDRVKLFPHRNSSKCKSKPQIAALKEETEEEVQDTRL

Structure (SMILES)	% Activation (ΔF508-CFTR [1]) [%]	% Activation (ΔF508-CFTR [2]) [%]	EC50 (ΔF508-CFTR [1]) [µM]	EC50 (ΔF508-CFTR [2]) [µM]
COCCS(=O)(=O)NC(=O)c1cc(N2CCC(COC)CC2)c2c(C3CCC3)nn(-c3ccccc3)c2n1 [Compound 256, 3-cyclobutyl-N-(2-methoxyethanesulfonyl)-4-[4-(methoxymethyl)piperidin-1-yl]-1-phenyl-1H-pyrazolo[3,4-b]pyridine-6-carboxamide]	331.85	508.63	–	–
CCOC(=O)N1CCC(c2cc(C(=O)NS(C)(=O)=O)nc3c2c(C(C)C)nn3-c2ccc(F)cc2)CC1 [Compound 496, ethyl 4-[1-(4-fluorophenyl)-6-[(methanesulfonyl)carbamoyl]-3-(propan-2-yl)-1H-pyrazolo[3,4-b]pyridin-4-yl]piperidine-1-carboxylate]	199.9	374.65	0.282	0.243
CCCN(C)S(=O)(=O)NC(=O)c1cc(N2CCC(N3CCOCC3)CC2)c2c(C3CCC3)nn(-c3ccccc3)c2n1 [Compound 432, 3-cyclobutyl-N-[methyl(propyl)sulfamoyl]-4-[4-(morpholin-4-yl)piperidin-1-yl]-1-phenyl-1H-pyrazolo[3,4-b]pyridine-6-carboxamide]	243.6	514.83	0.119	0.0659
CS(=O)(=O)NC(=O)c1cc(-c2ccc(N3CCC(C#N)CC3)nc2)c2c(n1)n(-c1ccccc1)nc2[C@H]1C[C@H](C)C1 [Compound 257, 4-[6-(4-cyanopiperidin-1-yl)pyridin-3-yl]-N-(methanesulfonyl)-3-(trans-3-methylcyclobutyl)-1-phenyl-1H-pyrazolo[3,4-b]pyridine-6-carboxamide]	272.4	451.25	0.37	0.0743
Cc1nn(-c2cc(F)cc(F)c2)c2nc(C(=O)NS(C)(=O)=O)cc(-c3ccc(N4CCOCC4)cc3)c12 [Compound 23, 1-(3,5-difluorophenyl)-N-(methanesulfonyl)-3-methyl-4-[4-(morpholin-4-yl)phenyl]-1H-pyrazolo[3,4-b]pyridine-6-carboxamide]	287.3	468.85	0.883	0.573
COCCN(C)c1cccc(-n2nc(C(C)C)c3c(-c4ccc(N5CCOCC5)cc4)cc(C(=O)NS(C)(=O)=O)nc32)c1 [Compound 76, N-(methanesulfonyl)-1-{3-[(2-methoxyethyl)(methyl)amino]phenyl}-4-[4-(morpholin-4-yl)phenyl]-3-(propan-2-yl)-1H-pyrazolo[3,4-b]pyridine-6-carboxamide]	430.87	581.37	0.528	0.633
COC1CC(CN2CCC(c3cc(C(=O)NS(C)(=O)=O)nc4c3c(C3CCC3)nn4-c3ccc(F)cc3)CC2)C(OC)O1 (stereo not shown) [Compound 602, 3-cyclobutyl-4-{1-[(2,5-dimethoxyoxolan-3-yl)methyl]piperidin-4-yl}-1-(4-fluorophenyl)-N-(methanesulfonyl)-1H-pyrazolo[3,4-b]pyridine-6-carboxamide]	133.6	359.1	1.18	0.581
COc1ccc(-c2cc(C(=O)NS(C)(=O)=O)nc3c2c(C)nn3-c2ccccc2)cc1 [Compound 14, N-(methanesulfonyl)-4-(4-methoxyphenyl)-3-methyl-1-phenyl-1H-pyrazolo[3,4-b]pyridine-6-carboxamide]	148.9	335.6	1.43	1.37
Cc1nn(C2CCCCC2)c2nc(C(=O)NS(=O)(=O)C3CC3)cc(-c3ccc(N4CCOCC4)cc3)c12 [Compound 239, 1-cyclohexyl-N-(cyclopropanesulfonyl)-3-methyl-4-[4-(morpholin-4-yl)phenyl]-1H-pyrazolo[3,4-b]pyridine-6-carboxamide]	184.6	431.55	0.999	1.24
CCCCOC1CCN(c2cc(C(=O)NS(C)(=O)=O)nc3c2c(C(C)C)nn3-c2ccc(F)cc2)CC1 [Compound 172, 4-(4-butoxypiperidin-1-yl)-1-(4-fluorophenyl)-N-(methanesulfonyl)-3-(propan-2-yl)-1H-pyrazolo[3,4-b]pyridine-6-carboxamide]	280.03	462.4	0.33	0.207
CS(=O)(=O)NC(=O)c1cc(-c2ccc(N3CCC(C#N)CC3)nc2)c2c(C3CC(F)C3)nn(-c3ccccc3)c2n1 (stereo not shown) [Compound 197, 4-[6-(4-cyanopiperidin-1-yl)pyridin-3-yl]-3-(3-fluorocyclobutyl)-N-(methanesulfonyl)-1-phenyl-1H-pyrazolo[3,4-b]pyridine-6-carboxamide]	220.2	390.8	0.397	0.194
COC(=O)N1CC(c2nn(-c3cc(F)cc(F)c3)c3nc(C(=O)NS(C)(=O)=O)cc(-c4ccc(NC(C)=O)cc4)c23)C1 [Compound 107, methyl 3-{4-(4-acetamidophenyl)-1-(3,5-difluorophenyl)-6-[(methanesulfonyl)carbamoyl]-1H-pyrazolo[3,4-b]pyridin-3-yl}azetidine-1-carboxylate]	64.54	219.4	3.34	3.34
CC(C)c1nn(-c2cccc(N(C)C)c2)c2nc(C(=O)NS(C)(=O)=O)cc(-c3ccc(N4CCOCC4)nc3)c12 [Compound 53, 1-[3-(dimethylamino)phenyl]-N-(methanesulfonyl)-4-[6-(morpholin-4-yl)pyridin-3-yl]-3-(propan-2-yl)-1H-pyrazolo[3,4-b]pyridine-6-carboxamide]	376.8	572.78	0.671	0.647
CC(C)c1nn(-c2ccc(F)cc2)c2nc(C(=O)NS(C)(=O)=O)cc(-c3cnc(N(C)C4CCOCC4)nc3)c12 [Compound 134, 1-(4-fluorophenyl)-N-(methanesulfonyl)-4-{2-[methyl(oxan-4-yl)amino]pyrimidin-5-yl}-3-(propan-2-yl)-1H-pyrazolo[3,4-b]pyridine-6-carboxamide]	229.87	435.8	0.465	0.237
Cc1nn(-c2ccc(F)cc2F)c2nc(C(=O)NS(C)(=O)=O)cc(-c3ccc(N4CCOCC4)nc3)c12 [Compound 60, 1-(2,4-difluorophenyl)-N-(methanesulfonyl)-3-methyl-4-[6-(morpholin-4-yl)pyridin-3-yl]-1H-pyrazolo[3,4-b]pyridine-6-carboxamide]	160.43	323.63	0.394	0.351
CC(C)c1nn(-c2cc(F)cc(F)c2)c2nc(C(=O)NS(C)(=O)=O)cc(-c3ccc(N4CCC(C#N)CC4)cc3)c12 [Compound 130, 4-[4-(4-cyanopiperidin-1-yl)phenyl]-1-(3,5-difluorophenyl)-N-(methanesulfonyl)-3-(propan-2-yl)-1H-pyrazolo[3,4-b]pyridine-6-carboxamide]	318.25	496.9	0.541	0.54
COCCN(C)c1ccc(-c2cc(C(=O)NS(C)(=O)=O)nc3c2c(C(C)C)nn3-c2cccc(N(C)C)c2)cc1 [Compound 82, 1-[3-(dimethylamino)phenyl]-N-(methanesulfonyl)-4-{4-[(2-methoxyethyl)(methyl)amino]phenyl}-3-(propan-2-yl)-1H-pyrazolo[3,4-b]pyridine-6-carboxamide]	366.27	535.93	0.472	0.383
O=C(c1cc(N2CCC(N3CCOCC3)CC2)c2c(C3CCC3)nn(-c3ccccc3)c2n1)N1CCCS1(=O)=O [Compound 665, 2-{3-cyclobutyl-4-[4-(morpholin-4-yl)piperidin-1-yl]-1-phenyl-1H-pyrazolo[3,4-b]pyridine-6-carbonyl}-1λ^6,2-thiazolidine-1,1-dione]	101.9	271.8	0.259	0.101
CC1(COc2cc(C(=O)NS(C)(=O)=O)nc3c2c(C2CCC2)nn3-c2ccccc2)CC(F)(F)C1 [Compound 282, 3-cyclobutyl-4-[(3,3-difluoro-1-methylcyclobutyl)methoxy]-N-(methanesulfonyl)-1-phenyl-1H-pyrazolo[3,4-b]pyridine-6-carboxamide]	127.8	379.95	0.129	0.089
CC(C)c1nn(-c2cccc(F)c2)c2nc(C(=O)NS(C)(=O)=O)cc(-c3ccc(N4CCC(C#N)CC4)cc3)c12 [Compound 131, 4-[4-(4-cyanopiperidin-1-yl)phenyl]-1-(3-fluorophenyl)-N-(methanesulfonyl)-3-(propan-2-yl)-1H-pyrazolo[3,4-b]pyridine-6-carboxamide]	314.35	465.1	0.43	0.581
CC(C)c1nn(-c2ccc(F)cc2)c2nc(C(=O)NS(C)(=O)=O)cc(N3CCC(N(C)C)CC3)c12 [Compound 319, 4-[4-(dimethylamino)piperidin-1-yl]-1-(4-fluorophenyl)-N-(methanesulfonyl)-3-(propan-2-yl)-1H-pyrazolo[3,4-b]pyridine-6-carboxamide]	34.315	232	0.298	0.98

Reference: patent publication US10259810B2, “N-sulfonylated pyrazolo[3,4-b]pyridin-6-carboxamides and method of use” (AbbVie S.à.r.l., priority 2015, dated 2019)
